Results as given in patent US12304890B2, “R-type pyridyloxycarboxylic acid, salt and ester derivative thereof, and preparation method therefor, and herbicidal composition and application thereof” (Qingdao Kingagroot Chemical Compound Co., Ltd., priority 2018, dated 2025).

What was measured:
Type in all cases: in vivo
Echinochloa crusgalli = experiment: Post-emergence test experiment, Echinochloa crusgalli; settings: 1000 g a.i./ha, 3 weeks in greenhouse, fresh weight inhibition
Procedure: (§1) The above described growth inhibition rate is fresh weight inhibition rate.
(§2) Post-emergence test experiment: Monocotyledonous and dicotyledonous weed seeds and main crop seeds (i. e. wheat, corn, rice, soybean, cotton, oilseed, millet and sorghum.) were put into a plastic pot loaded with soil. Then covered with 0.5-2 cm soil, the seeds were allowed to grow in good greenhouse environment. The test plants were treated at 2-3 leaf stage 2 weeks after sowing. The test compounds of the invention were dissolved with acetone respectively, then added with tween-80, and using 1.5 liters per hectare of an emulsible concentrate of methyl oleate as a synergist, and diluted by certain amount of water to certain concentration. The solution was sprayed to the plants with a sprayer. Then the plants were cultured for 3 weeks in the greenhouse, and the experiment result of weed controlling effect was listed in tables 4-5.

Digitaria sanguinalis = experiment: Post-emergence test experiment, Digitaria sanguinalis; settings: 1000 g a.i./ha, 3 weeks in greenhouse, fresh weight inhibition
Procedure: as §1, §2

[1] = tested on: Monocotyledonous and dicotyledonous weed seeds and main crop seeds; experiment: Post-emergence test experiment, other weeds and crops (Table 4, 1000 g a.i./ha); settings: 3 weeks in greenhouse, fresh weight inhibition
Procedure, shortened: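 Weed and crop seeds (wheat, corn, rice, soybean, cotton, oilseed, millet, sorghum) sown in soil pots in a greenhouse and sprayed at 2-3 leaf stage, 2 weeks after sowing. Compound in acetone/tween-80 with methyl oleate concentrate (1.5 L/ha) as synergist. Effect recorded as fresh-weight growth inhibition rate.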

Compound | Activity level (growth inhibition rate), Echinochloa crusgalli (Echinochloa crusgalli) | Activity level (growth inhibition rate), Digitaria sanguinalis (Digitaria sanguinalis) | Activity level (growth inhibition rate), Abutilon theophrasti Medic. [1] | Activity level (growth inhibition rate), Galium aparine [1] | Activity level (growth inhibition rate), Monochoria Vaginalis [1]
C[C@@H](Oc1nc(F)c(Cl)c(N)c1Cl)C(=O)OCc1cnn(C)c1 [Compound 2-354] | 5 (Level 5: the growth inhibition rate is greater than 85%) | 5 (Level 5: the growth inhibition rate is greater than 85%) | 5 (Level 5: the growth inhibition rate is greater than 85%) | 5 (Level 5: the growth inhibition rate is greater than 85%) | 5 (Level 5: the growth inhibition rate is greater than 85%)
C[C@@H](Oc1nc(F)c(Cl)c(N)c1Cl)C(=O)OCCF [Compound 2-276] | 5 (Level 5: the growth inhibition rate is greater than 85%) | 5 (Level 5: the growth inhibition rate is greater than 85%) | 5 (Level 5: the growth inhibition rate is greater than 85%) | 5 (Level 5: the growth inhibition rate is greater than 85%) | 5 (Level 5: the growth inhibition rate is greater than 85%)
CC(C)CSC(=O)[C@@H](C)Oc1nc(F)c(Cl)c(N)c1Cl [Compound 2-80] | 5 (Level 5: the growth inhibition rate is greater than 85%) | 5 (Level 5: the growth inhibition rate is greater than 85%) | 5 (Level 5: the growth inhibition rate is greater than 85%) | 5 (Level 5: the growth inhibition rate is greater than 85%) | 5 (Level 5: the growth inhibition rate is greater than 85%)
COC(=O)CSC(=O)C(C)Oc1nc(F)c(Cl)c(N)c1Cl (centres unmarked) [Compound 2-290] | 5 (Level 5: the growth inhibition rate is greater than 85%) | 5 (Level 5: the growth inhibition rate is greater than 85%) | 5 (Level 5: the growth inhibition rate is greater than 85%) | 5 (Level 5: the growth inhibition rate is greater than 85%) | 5 (Level 5: the growth inhibition rate is greater than 85%)
C[C@@H](Oc1nc(F)c(Cl)c(N)c1Cl)C(=O)OC(C)(C)C [Compound 2-83] | 5 (Level 5: the growth inhibition rate is greater than 85%) | 5 (Level 5: the growth inhibition rate is greater than 85%) | 5 (Level 5: the growth inhibition rate is greater than 85%) | 5 (Level 5: the growth inhibition rate is greater than 85%) | 5 (Level 5: the growth inhibition rate is greater than 85%)
CC(C)=NOCCOC(=O)[C@@H](C)Oc1nc(C)c(Cl)c(N)c1Cl [Compound 2-386] | 5 (Level 5: the growth inhibition rate is greater than 85%) | 5 (Level 5: the growth inhibition rate is greater than 85%) | 5 (Level 5: the growth inhibition rate is greater than 85%) | 5 (Level 5: the growth inhibition rate is greater than 85%) | 5 (Level 5: the growth inhibition rate is greater than 85%)
Cc1cccc(COC(=O)C(C)Oc2nc(F)c(Cl)c(N)c2Cl)c1 (centres unmarked) [Compound 2-304] | 5 (Level 5: the growth inhibition rate is greater than 85%) | 5 (Level 5: the growth inhibition rate is greater than 85%) | 5 (Level 5: the growth inhibition rate is greater than 85%) | 5 (Level 5: the growth inhibition rate is greater than 85%) | 5 (Level 5: the growth inhibition rate is greater than 85%)
CC(Oc1nc(F)c(Cl)c(N)c1Cl)C(=O)OCc1ccc(C(F)(F)F)cc1 (centres unmarked) [Compound 2-331] | 5 (Level 5: the growth inhibition rate is greater than 85%) | 5 (Level 5: the growth inhibition rate is greater than 85%) | 5 (Level 5: the growth inhibition rate is greater than 85%) | 5 (Level 5: the growth inhibition rate is greater than 85%) | 5 (Level 5: the growth inhibition rate is greater than 85%)
Cc1ccccc1CSC(=O)C(C)Oc1nc(F)c(Cl)c(N)c1Cl (centres unmarked) [Compound 2-303] | 5 (Level 5: the growth inhibition rate is greater than 85%) | 5 (Level 5: the growth inhibition rate is greater than 85%) | 5 (Level 5: the growth inhibition rate is greater than 85%) | 5 (Level 5: the growth inhibition rate is greater than 85%) | 5 (Level 5: the growth inhibition rate is greater than 85%)
C[C@@H](Oc1nc(F)c(Cl)c(N)c1Cl)C(=O)SCc1ccccc1C#N [Compound 2-334] | 5 (Level 5: the growth inhibition rate is greater than 85%) | 5 (Level 5: the growth inhibition rate is greater than 85%) | 5 (Level 5: the growth inhibition rate is greater than 85%) | 5 (Level 5: the growth inhibition rate is greater than 85%) | 5 (Level 5: the growth inhibition rate is greater than 85%)
CC(Oc1nc(F)c(Cl)c(N)c1Cl)C(=O)OCc1ccccc1F (centres unmarked) [Compound 2-308] | 5 (Level 5: the growth inhibition rate is greater than 85%) | 5 (Level 5: the growth inhibition rate is greater than 85%) | 5 (Level 5: the growth inhibition rate is greater than 85%) | 5 (Level 5: the growth inhibition rate is greater than 85%) | 5 (Level 5: the growth inhibition rate is greater than 85%)
CCCC(C)SC(=O)[C@@H](C)Oc1nc(F)c(Cl)c(N)c1Cl (some centres unmarked) [Compound 2-94] | 5 (Level 5: the growth inhibition rate is greater than 85%) | 5 (Level 5: the growth inhibition rate is greater than 85%) | 5 (Level 5: the growth inhibition rate is greater than 85%) | 5 (Level 5: the growth inhibition rate is greater than 85%) | 5 (Level 5: the growth inhibition rate is greater than 85%)
CC(C)CCCOC(=O)[C@@H](C)Oc1nc(F)c(Cl)c(N)c1Cl [Compound 2-107] | 5 (Level 5: the growth inhibition rate is greater than 85%) | 5 (Level 5: the growth inhibition rate is greater than 85%) | 5 (Level 5: the growth inhibition rate is greater than 85%) | 5 (Level 5: the growth inhibition rate is greater than 85%) | 5 (Level 5: the growth inhibition rate is greater than 85%)
CC(Oc1nc(F)c(Cl)c(N)c1Cl)C(=O)OCc1cccc(F)c1 (centres unmarked) [Compound 2-310] | 5 (Level 5: the growth inhibition rate is greater than 85%) | 5 (Level 5: the growth inhibition rate is greater than 85%) | 5 (Level 5: the growth inhibition rate is greater than 85%) | 5 (Level 5: the growth inhibition rate is greater than 85%) | 5 (Level 5: the growth inhibition rate is greater than 85%)
Cc1ccccc1COC(=O)C(C)Oc1nc(F)c(Cl)c(N)c1Cl (centres unmarked) [Compound 2-302] | 5 (Level 5: the growth inhibition rate is greater than 85%) | 5 (Level 5: the growth inhibition rate is greater than 85%) | 5 (Level 5: the growth inhibition rate is greater than 85%) | 5 (Level 5: the growth inhibition rate is greater than 85%) | 5 (Level 5: the growth inhibition rate is greater than 85%)
CC(Oc1nc(F)c(Cl)c(N)c1Cl)C(=O)OCc1ccccc1C(F)(F)F (centres unmarked) [Compound 2-327] | 5 (Level 5: the growth inhibition rate is greater than 85%) | 5 (Level 5: the growth inhibition rate is greater than 85%) | 5 (Level 5: the growth inhibition rate is greater than 85%) | 5 (Level 5: the growth inhibition rate is greater than 85%) | 5 (Level 5: the growth inhibition rate is greater than 85%)
